The values that follow come from a melting point compilation (Tetko et al.; mined from patent text by program, amines drawn as free bases though some values may be those of a salt).

For orientation: melting point means the temperature, or range, at which the solid turns liquid.

SMILES strings stand for the structures. Bounds are passed on as bounds.

Regarding `COc1cccc(CNC(=O)c2[nH]c3ccc(Cl)cc3c2S(=O)(=O)c2ccccc2)c1`, the melting point was in the range of 203 to 204 °C.

`Nc1nc(N)c(C(=O)N=CNNC(=O)n2ccnc2)nc1F` displayed a melting point of 227 to 230 °C.

The molecule `O=C1C=C(O)CC(c2ccccc2)N1` (configuration not stated) returned a melting point of 166 to 169 °C. The same measure for `FC(F)C(F)(F)Oc1cccc(Nc2nccc(-c3ccsc3)n2)c1`: 110 to 111 °C.

The molecule `Cn1cc(SCc2ccccc2)c(=O)c(-c2ccccc2)c1` had a melting point of 155 to 157 °C.

`CC1CN(c2cc3c(c(N)c2F)c(=O)c(C(=O)O)cn3C2CC2)CCN1` (configuration not stated) displayed a melting point of 181 to 183 °C.

In the case of `O=C(Nc1ccc(Cl)cn1)c1oc2ccc(C(=O)N3CCOCC3)cc2c1NC(=O)[C@H]1CC[C@H](N2CCCC2=O)CC1`, the melting point was 253 to 255 °C.

In turn, `Cc1cc(C)c2c(=O)cc(C(=O)O)[nH]c2c1` displayed a melting point of 285 to 287 °C.

In turn, `COC(=O)c1ccc(COc2cc3c(=O)ccn4c5ccc(Br)cc5c(c2)c34)nc1` returned a melting point of 75.2 to 76.3 °C. Molecule `Nc1nccc2ccc(OS(=O)(=O)C(F)(F)F)cc12` showed a melting point of 115 to 118 °C.

`CC(=O)Oc1ccc(-c2cc3ccccc3[nH]2)cc1` yielded a melting point of 203 °C. Turning to `N#Cc1cccc2c(-c3ccccc3)coc12`, the melting point fell in the range of 143 to 145 °C. In the case of `O=C(CCc1ccccc1)N[C@H](Cc1ccc(C(F)(F)F)cc1)[C@@H](O)c1ccc(F)c(F)c1` (racemic) it was 114 to 115 °C; in that of `Cc1c(-c2ccccc2)nc2ccc(NC(=O)c3cc4cc(F)ccc4n3Cc3cccc(F)c3)cn12`, 258 to 259 °C; in that of `Cc1cc(N(C)c2ccccc2)c2nn(C)cc2n1`, 252 to 256 °C. For `CC(C)(C)NNC(=O)OC(C)(C)C`, the melting point lay in the range of 69 to 71 °C.

The molecule `CCCCCCCCCCCCCCOc1cc(OCCCCCCc2cccc(OCc3ccccc3)c2OCc2ccccc2)cc(C(=O)OC)c1` showed a melting point of 56 to 58 °C. `CC(C)c1ccc(S(=O)(=O)c2ccccc2)cc1S(=O)(=O)NC1CCN(C(=O)c2cccc(F)c2)CC1` showed a melting point of 215 to 218 °C. `CN1CCN(c2cccc3ccc(OC(=O)c4ccc(Cl)cc4)cc23)CC1` gave a melting point of 110 to 111 °C. In the case of `O=[N+]([O-])c1ccccc1/C=C/c1ncon1` it was 128 °C. For the molecule `COc1cccc(-c2nc3n(n2)CCc2cc(OC)ccc2-3)c1`, the melting point lay in the range of 101 to 103 °C. In the case of `COc1cc2sc(C(=N)NO)cc2c(F)c1OC` it was 186 to 190 °C; in that of `CCOC(=O)C(=CNc1ccc(F)c(-c2ccncc2)n1)C(=O)OCC`, 140 to 141 °C; in that of `O=C(Nc1cccc2c(Cn3cnc4ccccc43)ccnc12)c1c(Cl)cccc1Cl`, 248 to 253 °C. In the case of `O=C(O)c1ccccc1Nc1ccc(I)cc1` it was 205 to 206 °C; in that of `O=C1c2c(c(=O)n3nc(-c4ccccc4)cc3n2Cc2ccccc2)CCN1C1CCCCC1`, 247 to 248 °C; in that of `N#Cc1ccccc1Nc1ccccc1[N+](=O)[O-]`, 134 to 138 °C.

Turning to `COC(=O)c1ccc(S(C)(=O)=O)c(C2=NOCC2)c1C`, the melting point is 104 to 106 °C. `CC1(N)CN(c2c(F)cc3c(=O)c(C(=O)O)cn(-c4ccc(F)cc4)c3c2F)C1` had a melting point of 272 to 277 °C. The same measure for `CC(C)(C)OC(=O)CCCCCOc1ccc2sc(-c3ccccn3)nc(=O)c2c1`: 101 to 102 °C. In turn, `C=C(C)C(=O)Nc1ccc(Nc2ccccc2)cc1` displayed a melting point of 101 to 103 °C. Turning to `NC[C@H]1CNc2cccc(-c3ccccc3Cl)c2O1`, the melting point is 135 °C. The same measure for `CCOCCOCCOc1ccc(C(=O)CN(Cc2ccccc2)Cc2ccccc2)cc1C(N)=O`: 91.5 to 92.5 °C; for `CN(C(=O)Nc1nc(OCC(F)(F)F)nc(OCC(F)(F)F)n1)c1ccc(Cl)cc1`: 218 to 219 °C; for `COc1ccc(COc2cc(NC(C)=O)c(Cl)cc2C(=O)CCCCCl)cc1OC`: 147 °C. In the case of `COc1ccc(C2(C#N)CCC(=O)CC2)c2nc(C(C)C)oc12` it was 118 °C; in that of `CN(c1cccc2cc(C(=O)NCC(C)(C#N)SCc3ccccc3)[nH]c12)S(=O)(=O)c1cccs1` (configuration not stated), 181 to 182 °C. Regarding `CCOC(=O)c1nc2ccc([N+](=O)[O-])cc2c(=O)[nH]1`, the melting point was 227 to 228 °C. The same measure for `O=C(O)/C=C/C=C(c1ccc(-c2ccccc2)cc1)c1ccc(-c2ccccc2)cc1`: 253 to 255 °C; for `O=C(N[C@H](Cc1cccc(OC(F)(F)C(F)F)c1)[C@@H](O)c1ccc(CN2CCCCC2)cc1)c1cccc2c1C=CCCC2` (racemic): 104 to 106 °C. The same measure for `CC(=O)NC[C@H]1CN(c2ccc(C3CCN(CC#N)CC3)c(F)c2)C(=O)O1`: 165 to 167 °C; for `CCCCCCCCCCCCC(C)CNc1cc(C)c([N+](=O)[O-])cc1C(N)=O` (configuration not stated): 117 to 119 °C. In the case of `NC(=O)c1cc(O)ccc1Cl`, the melting point was in the range of 159 to 161 °C. Consider `C=CCc1c(O)ccc2c1CCCC2=O`, for which the melting point is 145 to 148 °C. In the case of `Cc1nnc2ncc(-c3ccccc3F)nn12` it was 200 to 204 °C; in that of `O=C1CCC(N2Cc3c(OCc4ccc(CN5CCN(S(=O)(=O)C6CC6)CC5)cc4)cccc3C2=O)C(=O)N1` (configuration not stated), 145 to 147 °C. In the case of `CCC(=O)OCCSCC(=O)NC/C=C\COc1cc(CN2CCCCC2)ccn1` it was 99 to 106 °C; in that of `CCCCC(=O)OC1(C(C)=O)C(C)CC2C3CCC4=CC(=O)C=CC4(C)C3(Cl)C(Cl)CC21C` (configuration not stated), 170 to 172 °C; in that of `CCC1CCC(=O)C=C1c1ccc(OCC(=O)O)c(Cl)c1Cl` (configuration not stated), 164 to 165 °C. `CCCOC(=O)c1cncn1C(c1ccccc1)c1ccccc1` had a melting point of 81 °C. `COc1ccc(C2COC(=O)C2CSC2CCCCC2)cc1` (configuration not stated) gave a melting point of 50 to 51 °C. With `COC(=O)c1nc(-c2cnco2)cc(N)c1Cl`, the melting point fell in the range of 166 to 170 °C. In the case of `C[C@H]1CCCC(C)(C)[C@@H]1[C@H](O)c1ccc(C(F)(F)F)c(F)c1`, the melting point lay in the range of 71 to 73 °C. The same measure for `Nc1nc(=O)n(CCCCI)cc1F`: 181 to 184 °C; for `Cc1c(NC(=O)c2ccc(-c3cc4ccccc4o3)cc2)ccc2cc(CN3CCCC3)cnc12`: 217 to 218 °C; for `O=C(O)CCCNC(=O)c1ccccc1NC(=O)c1ccccc1Br`: 117 to 118 °C. In the case of `COc1ccc2c(c1)sc1nc(C)c(CO)n12` it was 204 °C. The same measure for `COc1cccc([C@]23CCN(C)C(=O)[C@@H]2CCC2(C3)OCCO2)c1` (relative stereo): 180 to 181 °C; for `CCCCOc1ccc(C=C(C#N)S(C)(=O)=O)cc1`: 96.5 to 97 °C; for `COc1ccc(-c2[nH]nc3c2C(=O)c2c(NC(=O)NNC(=O)c4ccc(O)cc4)cccc2-3)cc1`: 283 °C.

In the case of `O=c1nc(N2CCc3ccccc32)sc2ncccc12`, the melting point fell in the range of 249 to 250 °C. In the case of `CC1(C)CC(=O)c2c(SC(C)(C)C)sc(-c3cc[nH]n3)c2C1` it was 220 to 222 °C; in that of `COCNC(=O)OC(C(Oc1ccc(-c2ccccc2)cc1)n1cncn1)C(C)(C)C` (configuration not stated), 95 to 98 °C; in that of `COC(=O)C(C)(C)c1ccc(C(=O)Nc2cn3cc(Cl)ccc3n2)cc1`, 245 to 246 °C. The same measure for `O=C1N(CO)CCN1C(c1ccccc1)c1ccccc1`: 134 °C; for `CCC1=NNC(C)=C(C(=O)OC(C)(C)C)C1c1cccc([N+](=O)[O-])c1` (configuration not stated): 122 °C; for `O=c1cc(N2CCOCC2)oc2ccc(-c3ccccc3)cc12`: 218 to 220 °C. The same measure for `CC(C)(C)OC(=O)N1CCN(c2[nH]nc(-c3ccc(Cl)cc3)c2-c2ccncc2)CC1`: 204 to 205 °C. For `Nc1ncc(CN2CCN(c3ccc(Cl)cc3)CC2)c(N)n1`, the melting point is 296 to 298 °C. For `CN1CCC2(c3ccccc3)OC2C1` (configuration not stated), the melting point fell in the range of 44 to 45 °C. In turn, `CCC12CCC3c4ccc(OC)cc4CCC3C1CCC2(OC(C)=O)C(C)=O` (configuration not stated) gave a melting point of 144 to 148 °C. With `CCCOc1ccccc1OS(=O)(=O)NC(=O)Nc1nc(OC)cc(OC)n1`, the melting point was 108 to 109 °C. Turning to `N#CC=C1CCc2cnc3c(c21)CCO3`, the melting point was 153 to 155 °C.

Consider `COC(=O)c1sc2cc(OC)ccc2c1C`, for which the melting point is 118 to 120 °C.

Turning to `COc1ccccc1[C@@]1(O)C[C@@H](C)C[C@@H]2CN(Cc3ccccc3)C[C@@H]21` (racemic), the melting point was determined as 120 °C. Molecule `Cc1ccc(-c2cccc(/C=C/C(=O)Nc3ccc(CN4CCCC(CO)C4)cc3)c2)cc1` (configuration not stated) yielded a melting point of 153 to 154 °C.

The molecule `O=C(NCCCn1cncn1)Nc1ccc(Cl)cc1` showed a melting point of 137 to 139 °C. In the case of `CC12CCc3ccccc3C1=NNC(=O)C2` (configuration not stated) it was 189 to 190 °C. Take `O=c1[nH]c2ccccc2n1CCN1CCCCC1`: the melting point was 123 to 125 °C.

`Oc1cc(Cl)c2c(C34CC5CC(CC(C5)C3)C4)noc2c1` gave a melting point of 215 °C. The same measure for `CC(C)(C)OC(=O)NCCNC(=O)c1ncccc1Oc1ccccc1Cl`: 86 to 87 °C; for `CCCCN(CCCC)CCCOc1ccc(C(=O)c2c(-c3ccccc3)n(C)c3ccc(NS(C)(=O)=O)cc23)cc1`: 116 °C; for `Cc1c(C(N)=O)oc2c(C(=O)O)cccc2c1=O`: over 250 °C. The molecule `Cc1nc(N)nc(N)c1CCC(C)c1cccc(-c2ccc(C(F)(F)F)cc2)c1` (configuration not stated) came in with a melting point of 67 to 68 °C. Regarding `CC(C)C(NC(=O)c1ccc(C(=O)NCC(=O)O)cc1)C(=O)N(CC(=O)NC(C(=O)C(F)(F)F)C(C)C)C1Cc2ccccc2C1` (mixture of isomers), the melting point was 88 to 91 °C. In the case of `CN(C)C(=O)Cn1c(-c2ccc([N+](=O)[O-])cc2)nc2cccnc21` it was 204 to 207 °C; in that of `O=C(O)c1ccc(C(=C2CC3CCC(C2)N3CCc2ccccc2)c2ccccc2)cc1`, 285 to 290 °C.
